Assay results published in patent US20250195530A1, “POLQ INHIBITORS” (ASTRAZENECA AB, priority 2022, published 2025).
Where two headings read alike, the source gives them in different places.

Experiments:
DLD-1 cells = test: Inhibition of proliferation, DLD-1 BRCA2 wt control (Cell Titre Glo 3D); assay type: cell-based; settings: Homo sapiens, read-out: POLQ PD Prolif Lumin (converted)
Procedure, shortened: (§1)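 Cells are seeded in RPMI 1640 (phenol red free, 10% FBS, GlutaMAX) onto pre-dosed compound (10 μM to 0.51 nM, three-fold). Plates are incubated at 37 °C, and medium plus compound are refreshed on day 6. Viability is read by CellTiter-Glo 3D at day 7 (DLD-1) or day 12 (DLD-1 BRCA2−/−), and the IC50 is fitted.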

DLD-1 BRCA2−/− cells = test: Homologous recombination synthetic lethal inhibition of proliferation, DLD-1 BRCA2-/- (Cell Titre Glo 3D); assay type: cell-based; settings: Homo sapiens, read-out: POLQ PD Prolif Lumin (converted)
Procedure, shortened: as §1

[1] = DLD-1, proliferation, luminescence, second Prolif column (c6), taken as DLD-1 BRCA2 wt control
[2] = DLD-1, proliferation, luminescence, taken as DLD-1 BRCA2-/-
[3] = DLD-1, second proliferation column (c6), DLD-1 BRCA2 wt control
[4] = DLD-1, first proliferation column (c5), DLD-1 BRCA2-/-

SMILES	IC50 (DLD-1 cells; [1]) [nM]	IC50 (DLD-1 cells; [3]) [nM]	IC50 (DLD-1 BRCA2−/− cells; [2]) [nM]	IC50 (DLD-1 BRCA2−/− cells; [4]) [nM]
CC1(Oc2ncnc3c2nc(-c2ccc(OCCCCCC(=O)O)cc2Cl)n3Cc2cccc(Cl)c2)CC1 [Example T437, 6-(3-chloro-4-(9-(3-chlorobenzyl)-6-(1-methylcyclopropoxy)-9H-purin-8-yl)phenoxy)hexanoic acid]	> 10000	–	63.1	–
CC1(Oc2ncnc3c2nc(-c2cccc(OCCCCCC(=O)O)c2Cl)n3Cc2cccc(Cl)c2)CC1 [Example T440, 6-(2-chloro-3-(9-(3-chlorobenzyl)-6-(1-methylcyclopropoxy)-9H-purin-8-yl)phenoxy)hexanoic acid]	> 10000	–	25.1	–
CC1(Oc2ncnc3c2nc(-c2ccc(OCCCCOCC(=O)O)cc2Cl)n3Cc2cccc(Cl)c2)CC1 [Example T445, 2-(4-(3-chloro-4-(9-(3-chlorobenzyl)-6-(1-methylcyclopropoxy)-9H-purin-8-yl)phenoxy)butoxy)acetic acid]	> 10000	–	251	–
CC1(Oc2ncnc3c2nc(-c2cccc(OCCCCOCC(=O)O)c2Cl)n3Cc2cccc(Cl)c2)CC1 [Example T448, 2-(4-(2-chloro-3-(9-(3-chlorobenzyl)-6-(1-methylcyclopropoxy)-9H-purin-8-yl)phenoxy)butoxy)acetic acid]	> 10000	–	79.4	–
CC1(Oc2ncnc3c2nc(-c2ccc(OCCCOCCC(=O)O)cc2Cl)n3Cc2cccc(Cl)c2)CC1 [Example T449, 3-(3-(3-chloro-4-(9-(3-chlorobenzyl)-6-(1-methylcyclopropoxy)-9H-purin-8-yl)phenoxy)propoxy)propanoic acid]	> 10000	–	50.1	–
CC1(Oc2ncnc3c2nc(-c2ccc(OCCOC(C)(C)C(=O)O)cc2Cl)n3Cc2cccc(Cl)c2)CC1 [Example T450, 2-(2-(3-chloro-4-(9-(3-chlorobenzyl)-6-(1-methylcyclopropoxy)-9H-purin-8-yl)phenoxy)ethoxy)-2-methylpropanoic acid]	> 10000	–	200	–
CC1(Oc2ncnc3c2nc(-c2ccc(OCCOCCOCC(=O)O)cc2Cl)n3Cc2cccc(Cl)c2)CC1 [Example T451, 2-(2-(2-(3-chloro-4-(9-(3-chlorobenzyl)-6-(1-methylcyclopropoxy)-9H-purin-8-yl)phenoxy)ethoxy)ethoxy)acetic acid]	> 10000	–	501	–
CC1(Oc2ncnc3c2nc(-c2ccc(OCCCN4CC(O)C4)cc2Cl)n3Cc2cc(C(F)F)ccn2)CC1 [Example T452, 1-(3-(3-chloro-4-(9-((4-(difluoromethyl)pyridin-2-yl)methyl)-6-(1-methylcyclopropoxy)-9H-purin-8-yl)phenoxy)propyl)azetidin-3-ol]	> 10000	–	794	–
CC1(Oc2ncnc3c2nc(-c2ccc(OCCN4CCNCC4)cc2C(F)(F)F)n3Cc2cc(Cl)ccn2)CC1 [Example T453, 9-((4-chloropyridin-2-yl)methyl)-6-(1-methylcyclopropoxy)-8-(4-(2-(piperazin-1-yl)ethoxy)-2-(trifluoromethyl)phenyl)-9H-purine]	> 10000	–	251	–
Cc1ccnc(Cn2c(-c3ccc(OC4CC5(CNC5)C4)cc3Cl)nc3c(OC4(C)CC4)ncnc32)c1 [Example T457, 8-(4-((2-azaspiro[3.3]heptan-6-yl)oxy)-2-chlorophenyl)-6-(1-methylcyclopropoxy)-9-((4-methylpyridin-2-yl)methyl)-9H-purine]	> 10000	–	316	–
Cc1ccnc(Cn2c(-c3ccc(C(=O)N4CCC(O)CC4)cc3Cl)nc3c(OC4(C)CC4)ncnc32)c1 [Example T460, (3-chloro-4-(6-(1-methylcyclopropoxy)-9-((4-methylpyridin-2-yl)methyl)-9H-purin-8-yl)phenyl)(4-hydroxypiperidin-1-yl)methanone]	> 10000	–	3160	–
Cc1ccnc(Cn2c(-c3ccc(CC(=O)N4CC(C)(O)C4)cc3Cl)nc3c(OC4(C)CC4)ncnc32)c1 [Example T470, 2-(3-chloro-4-(6-(1-methylcyclopropoxy)-9-((4-methylpyridin-2-yl)methyl)-9H-purin-8-yl)phenyl)-1-(3-hydroxy-3-methylazetidin-1-yl)ethan-1-one]	> 10000	–	1000	–
Clc1cc(OCCN2CCNCC2)ccc1-c1nc2c(OC3CCC3)ncnc2n1Cc1ccccc1 [Example T506, 9-benzyl-8-(2-chloro-4-(2-(piperazin-1-yl)ethoxy)phenyl)-6-cyclobutoxy-9H-purine]	–	2000	–	501

More lines, main results first:

IC50 (DLD-1 cells; [1]) [nM]	IC50 (DLD-1 cells; [3]) [nM]	SMILES	IC50 (DLD-1 BRCA2−/− cells; [2]) [nM]	IC50 (DLD-1 BRCA2−/− cells; [4]) [nM]
> 10000	–	Cc1ccnc(Cn2c(-c3ccc(OC4CN(C(=O)[C@@H](C)O)C4)cc3Cl)nc3c(OC4(C)CC4)ncnc32)c1 [Example T482, (R)-1-(3-(3-chloro-4-(6-(1-methylcyclopropoxy)-9-((4-methylpyridin-2-yl)methyl)-9H-purin-8-yl)phenoxy)azetidin-1-yl)-2-hydroxypropan-1-one]	316	–
–	> 10000	CC1(Oc2ncnc3c2nc(-c2ccc(OCCN4CCNCC4)cc2Cl)n3Cc2ccc(C#N)cn2)CC1 [Example T484, 6-((8-(2-chloro-4-(2-(piperazin-1-yl)ethoxy)phenyl)-6-(1-methylcyclopropoxy)-9H-purin-9-yl)methyl)nicotinonitrile]	–	> 7940
–	> 10000	CC1(Oc2ncnc3c2nc(-c2ccc(OCCN4CCNCC4)cc2Cl)n3Cc2cc(C(F)F)ccn2)CC1 [Example T488, 8-(2-chloro-4-(2-(piperazin-1-yl)ethoxy)phenyl)-9-((4-(difluoromethyl)pyridin-2-yl)methyl)-6-(1-methylcyclopropoxy)-9H-purine]	–	1000
–	5010	Cc1ccnc(Cn2c(-c3ccc(CN4CC5(CCN5)C4)cc3Cl)nc3c(OC4(C)CC4)ncnc32)c1 [Example T489, 8-(4-((1,6-diazaspiro[3.3]heptan-6-yl)methyl)-2-chlorophenyl)-6-(1-methylcyclopropoxy)-9-((4-methylpyridin-2-yl)methyl)-9H-purine]	–	794
–	> 10000	Cc1ccnc(Cn2c(-c3ccc(CC(=O)N4CCNCC4)cc3Cl)nc3c(OC4(C)CC4)ncnc32)c1 [Example T495, 2-(3-chloro-4-(6-(1-methylcyclopropoxy)-9-((4-methylpyridin-2-yl)methyl)-9H-purin-8-yl)phenyl)-1-(piperazin-1-yl)ethan-1-one]	–	794
–	> 10000	Cc1ccnc(Cn2c(-c3ccc(C(=O)N4CCCNCC4)cc3Cl)nc3c(OC4(C)CC4)ncnc32)c1 [Example T496, (3-chloro-4-(6-(1-methylcyclopropoxy)-9-((4-methylpyridin-2-yl)methyl)-9H-purin-8-yl)phenyl)(1,4-diazepan-1-yl)methanone]	–	> 10000
–	> 7940	CC1(Oc2ncnc3c2nc(-c2ccc(OCCCN4CC[C@@H](O)C4)cc2Cl)n3Cc2cc(Cl)ccn2)CC1 [Example T502, (R)-1-(3-(3-chloro-4-(9-((4-chloropyridin-2-yl)methyl)-6-(1-methylcyclopropoxy)-9H-purin-8-yl)phenoxy)propyl)pyrrolidin-3-ol]	–	126
–	> 7940	CC1(Oc2ncnc3c2nc(-c2ccc(OCCCN4CC[C@H](O)C4)cc2Cl)n3Cc2cc(Cl)ccn2)CC1 [Example T503, (S)-1-(3-(3-chloro-4-(9-((4-chloropyridin-2-yl)methyl)-6-(1-methylcyclopropoxy)-9H-purin-8-yl)phenoxy)propyl)pyrrolidin-3-ol]	–	100
–	> 10000	Cc1ccnc(Cn2c(-c3ccc(OCCN4CCNCC4)cc3Cl)nc3c(OC4(C)CC4)ncnc32)c1F [Example T504, 8-(2-chloro-4-(2-(piperazin-1-yl)ethoxy)phenyl)-9-((3-fluoro-4-methylpyridin-2-yl)methyl)-6-(1-methylcyclopropoxy)-9H-purine]	–	2000
–	> 10000	Cc1ccnc(Cn2c(-c3ccc(CCN4CCCC4)cc3Cl)nc3c(OC4(C)CC4)ncnc32)c1 [Example T505, 8-(2-chloro-4-(2-(pyrrolidin-1-yl)ethyl)phenyl)-6-(1-methylcyclopropoxy)-9-((4-methylpyridin-2-yl)methyl)-9H-purine]	–	158
–	> 10000	Cc1ccnc(Cn2c(-c3ccc(OCCN4CCCC4)cc3Cl)nc3c(OC4(C)CC4)ncnc32)c1 [Example T507, 8-(2-chloro-4-(2-(pyrrolidin-1-yl)ethoxy)phenyl)-6-(1-methylcyclopropoxy)-9-((4-methylpyridin-2-yl)methyl)-9H-purine]	–	100
–	> 10000	Cc1ccnc(Cn2c(-c3ccc(CN4CCC(O)CC4)cc3Cl)nc3c(OC4(C)CC4)ncnc32)c1 [Example T508, 1-(3-chloro-4-(6-(1-methylcyclopropoxy)-9-((4-methylpyridin-2-yl)methyl)-9H-purin-8-yl)benzyl)piperidin-4-ol]	–	316
–	> 10000	Cc1ccnc(Cn2c(-c3ccc(CCN4CC[C@@H](O)C4)cc3Cl)nc3c(OC4(C)CC4)ncnc32)c1 [Example T511, (R)-1-(3-chloro-4-(6-(1-methylcyclopropoxy)-9-((4-methylpyridin-2-yl)methyl)-9H-purin-8-yl)phenethyl)pyrrolidin-3-ol]	–	316
–	> 10000	Cc1ccnc(Cn2c(-c3ccc(OCCN4CC[C@@H](O)C4)cc3Cl)nc3c(OC4(C)CC4)ncnc32)c1 [Example T512, (R)-1-(2-(3-chloro-4-(6-(1-methylcyclopropoxy)-9-((4-methylpyridin-2-yl)methyl)-9H-purin-8-yl)phenoxy)ethyl)pyrrolidin-3-ol]	–	200
